# Source: PubChem BioAssay (NCI)
#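 96-well plates; 48 h exposure; 5 concentrations. Endpoints by linear interpolation between flanking doses. Not reached: highest tested concentration assigned. At the TGI there is no net growth.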
# Columns and labels:
# Assay in all cases: DTP human tumour cell line panel, 48 h
# SW-620 colon = test system: SW-620 colon
# OVCAR-8 ovarian = test system: OVCAR-8 ovarian
# SK-MEL-2 melanoma = test system: SK-MEL-2 melanoma
# ACHN renal = test system: ACHN renal
# A549 NSCLC = test system: A549 NSCLC
# NCI-H522 lung = test system: NCI-H522 lung
# HCT-15 colon = test system: HCT-15 colon
# SK-OV-3 ovarian = test system: SK-OV-3 ovarian
# NCI-H460 lung = test system: NCI-H460 lung
# NCI-H23 lung = test system: NCI-H23 lung
# SK-MEL-28 melanoma = test system: SK-MEL-28 melanoma
# SN12C renal = test system: SN12C renal
# 786-0 renal = test system: 786-0 renal
# HT29 colon = test system: HT29 colon
# T-47D breast = test system: T-47D breast
# M14 melanoma = test system: M14 melanoma
# HL-60(TB) leukemia = test system: HL-60(TB) leukemia
structure (smiles),measurement,setting,value
CCN(CC)CCNC(=O)c1cc2cc(NC(=O)c3cc4cc(NC(=O)c5cc6cc([N+](=O)[O-])ccc6[nH]5)ccc4[nH]3)ccc2[nH]1,TGI,SW-620 colon,> 100 µM
same,TGI,OVCAR-8 ovarian,> 100 µM
same,TGI,SK-MEL-2 melanoma,> 100 µM
same,TGI,ACHN renal,> 100 µM
same,TGI,A549 NSCLC,> 100 µM
same,TGI,NCI-H522 lung,> 100 µM
same,TGI,HCT-15 colon,> 100 µM
same,TGI,SK-OV-3 ovarian,> 100 µM
same,TGI,NCI-H460 lung,> 100 µM
same,TGI,NCI-H23 lung,> 100 µM
same,TGI,SK-MEL-28 melanoma,> 100 µM
same,TGI,SN12C renal,> 100 µM
same,TGI,786-0 renal,> 100 µM
same,TGI,HT29 colon,> 100 µM
same,TGI,T-47D breast,> 100 µM
same,TGI,M14 melanoma,> 100 µM
CN1CCN(c2ccc3nc(-c4ccc5nc(-c6ccc(N(C)CCCl)cc6)[nH]c5c4)[nH]c3c2)CC1,TGI,SW-620 colon,1.22 µM
same,TGI,OVCAR-8 ovarian,1.53 µM
same,TGI,SK-MEL-2 melanoma,0.465 µM
same,TGI,ACHN renal,5.97 µM
same,TGI,A549 NSCLC,10.1 µM
same,TGI,NCI-H522 lung,0.0365 µM
same,TGI,HCT-15 colon,26.1 µM
same,TGI,SK-OV-3 ovarian,1.2 µM
same,TGI,NCI-H460 lung,5.14 µM
same,TGI,NCI-H23 lung,7.4 µM
same,TGI,SK-MEL-28 melanoma,1.13 µM
same,TGI,SN12C renal,1.13 µM
same,TGI,HL-60(TB) leukemia,> 100 µM
same,TGI,786-0 renal,1.11 µM
same,TGI,HT29 colon,0.675 µM
same,TGI,M14 melanoma,3.42 µM
COc1ccc2c(c1)Cc1c-2[nH]c2cc3c(cc2c1=O)OCO3,TGI,SW-620 colon,> 100 µM
same,TGI,OVCAR-8 ovarian,> 100 µM
same,TGI,SK-MEL-2 melanoma,21.8 µM
same,TGI,ACHN renal,30.5 µM
same,TGI,A549 NSCLC,> 100 µM
same,TGI,NCI-H522 lung,35.1 µM
same,TGI,HCT-15 colon,> 100 µM
same,TGI,SK-OV-3 ovarian,95.8 µM
same,TGI,NCI-H460 lung,35 µM
same,TGI,NCI-H23 lung,48.2 µM
same,TGI,SK-MEL-28 melanoma,53.8 µM
same,TGI,SN12C renal,> 100 µM
same,TGI,HL-60(TB) leukemia,29.2 µM
same,TGI,786-0 renal,> 100 µM
same,TGI,HT29 colon,19.9 µM
same,TGI,M14 melanoma,51.2 µM
O=c1cc(-c2ccc[nH]2)[nH]c2cc3c(cc12)OCO3,TGI,SW-620 colon,> 100 µM
same,TGI,OVCAR-8 ovarian,> 100 µM
same,TGI,SK-MEL-2 melanoma,> 100 µM
same,TGI,ACHN renal,> 100 µM
same,TGI,A549 NSCLC,> 100 µM
same,TGI,HCT-15 colon,> 100 µM
same,TGI,NCI-H460 lung,> 100 µM
same,TGI,SK-MEL-28 melanoma,> 100 µM
same,TGI,SN12C renal,> 100 µM
same,TGI,HL-60(TB) leukemia,83.6 µM
same,TGI,786-0 renal,> 100 µM
same,TGI,HT29 colon,> 100 µM
same,TGI,M14 melanoma,> 100 µM
C[N+](C)(N)Cc1csc(-c2ccc(Cl)cc2)n1,TGI,SW-620 colon,> 100 µM
same,TGI,OVCAR-8 ovarian,> 100 µM
same,TGI,SK-MEL-2 melanoma,> 100 µM
same,TGI,ACHN renal,> 100 µM
same,TGI,A549 NSCLC,> 100 µM
same,TGI,NCI-H522 lung,> 100 µM
same,TGI,HCT-15 colon,> 100 µM
same,TGI,SK-OV-3 ovarian,> 100 µM
same,TGI,NCI-H460 lung,> 100 µM
same,TGI,NCI-H23 lung,> 100 µM
same,TGI,SK-MEL-28 melanoma,> 100 µM
same,TGI,SN12C renal,> 100 µM
same,TGI,786-0 renal,> 100 µM
same,TGI,HT29 colon,> 100 µM
same,TGI,T-47D breast,> 100 µM
same,TGI,M14 melanoma,> 100 µM
CC[S+](C)c1ccc(-c2c3nc(c(-c4ccc([S+](C)CC)cc4)c4ccc([nH]4)c(-c4ccc([S+](C)CC)cc4)c4nc(c(-c5ccc([S+](C)CC)cc5)c5ccc2[nH]5)C=C4)C=C3)cc1 (configuration not stated),TGI,SW-620 colon,> 100 µM
same,TGI,OVCAR-8 ovarian,> 100 µM
same,TGI,SK-MEL-2 melanoma,77.5 µM
same,TGI,ACHN renal,> 100 µM
same,TGI,A549 NSCLC,> 100 µM
same,TGI,NCI-H522 lung,> 100 µM
same,TGI,HCT-15 colon,> 100 µM
same,TGI,SK-OV-3 ovarian,95.5 µM
same,TGI,NCI-H460 lung,> 100 µM
same,TGI,NCI-H23 lung,> 100 µM
same,TGI,SK-MEL-28 melanoma,> 100 µM
same,TGI,SN12C renal,60.4 µM
same,TGI,HL-60(TB) leukemia,49.9 µM
same,TGI,786-0 renal,> 100 µM
same,TGI,HT29 colon,> 100 µM
same,TGI,M14 melanoma,> 100 µM
CC[C@@]1(O)C(=O)OCc2c1cc1n(c2=O)Cc2c-1nc1ccccc1c2/C=N\NC(=O)C(N)=O,TGI,SW-620 colon,> 100 µM
same,TGI,OVCAR-8 ovarian,37 µM
same,TGI,SK-MEL-2 melanoma,> 77.8 µM
same,TGI,ACHN renal,0.814 µM
same,TGI,A549 NSCLC,> 100 µM
same,TGI,NCI-H522 lung,46.5 µM
same,TGI,HCT-15 colon,> 100 µM
same,TGI,SK-OV-3 ovarian,27.5 µM
same,TGI,NCI-H460 lung,29.9 µM
same,TGI,NCI-H23 lung,3.67 µM
same,TGI,SK-MEL-28 melanoma,> 100 µM
same,TGI,SN12C renal,> 100 µM
same,TGI,HL-60(TB) leukemia,> 100 µM
same,TGI,786-0 renal,16 µM
same,TGI,HT29 colon,> 100 µM
same,TGI,M14 melanoma,14.3 µM
CC(=O)C1C(=O)C(=O)N(c2ccc([N+](=O)[O-])cc2Cl)C1=O (configuration not stated),TGI,SW-620 colon,> 100 µM
same,TGI,OVCAR-8 ovarian,> 100 µM
same,TGI,SK-MEL-2 melanoma,> 100 µM
same,TGI,ACHN renal,> 100 µM
same,TGI,A549 NSCLC,> 100 µM
same,TGI,NCI-H522 lung,> 100 µM
same,TGI,HCT-15 colon,> 100 µM
same,TGI,SK-OV-3 ovarian,> 100 µM
same,TGI,NCI-H460 lung,> 100 µM
same,TGI,NCI-H23 lung,> 100 µM
same,TGI,SK-MEL-28 melanoma,> 100 µM
same,TGI,SN12C renal,> 100 µM
same,TGI,HL-60(TB) leukemia,> 100 µM
same,TGI,786-0 renal,> 100 µM
same,TGI,HT29 colon,> 100 µM
same,TGI,M14 melanoma,> 100 µM
Cc1cc(C)c(N)c(C)c1N,TGI,SW-620 colon,> 100 µM
same,TGI,OVCAR-8 ovarian,> 100 µM
same,TGI,SK-MEL-2 melanoma,> 100 µM
same,TGI,ACHN renal,> 100 µM
same,TGI,A549 NSCLC,> 100 µM
same,TGI,NCI-H522 lung,> 100 µM
same,TGI,HCT-15 colon,> 100 µM
same,TGI,SK-OV-3 ovarian,> 100 µM
same,TGI,NCI-H460 lung,> 100 µM
same,TGI,NCI-H23 lung,> 100 µM
same,TGI,SK-MEL-28 melanoma,> 100 µM
same,TGI,SN12C renal,> 100 µM
same,TGI,HL-60(TB) leukemia,> 100 µM
same,TGI,786-0 renal,> 100 µM
same,TGI,M14 melanoma,> 100 µM
COc1cc(C2c3cc4c(cc3OC(N3CCOCC3)C2C)OCO4)cc(OC)c1OC (configuration not stated),TGI,SW-620 colon,> 100 µM
same,TGI,OVCAR-8 ovarian,59.2 µM
same,TGI,SK-MEL-2 melanoma,28.2 µM
same,TGI,ACHN renal,50.3 µM
same,TGI,A549 NSCLC,> 69.2 µM
same,TGI,NCI-H522 lung,9.61 µM
same,TGI,HCT-15 colon,> 40.3 µM
same,TGI,SK-OV-3 ovarian,23.4 µM
same,TGI,NCI-H460 lung,10.2 µM
same,TGI,NCI-H23 lung,18.2 µM
same,TGI,SK-MEL-28 melanoma,> 100 µM
same,TGI,SN12C renal,> 100 µM
same,TGI,786-0 renal,28.6 µM
same,TGI,HT29 colon,7.51 µM
same,TGI,T-47D breast,> 100 µM
same,TGI,M14 melanoma,44.1 µM
CN(c1ccccc1Cl)S(=O)(=O)c1ccccc1,TGI,SW-620 colon,> 100 µM
same,TGI,OVCAR-8 ovarian,> 100 µM
same,TGI,SK-MEL-2 melanoma,> 100 µM
same,TGI,ACHN renal,> 100 µM
same,TGI,A549 NSCLC,> 100 µM
same,TGI,NCI-H522 lung,> 100 µM
same,TGI,HCT-15 colon,> 100 µM
same,TGI,SK-OV-3 ovarian,> 100 µM
same,TGI,NCI-H460 lung,> 100 µM
same,TGI,NCI-H23 lung,> 100 µM
same,TGI,SK-MEL-28 melanoma,> 100 µM
same,TGI,SN12C renal,> 100 µM
same,TGI,HL-60(TB) leukemia,> 100 µM
same,TGI,786-0 renal,> 100 µM
same,TGI,HT29 colon,> 100 µM
same,TGI,M14 melanoma,> 100 µM
